Test results as given in publication PMC7044277 (Nature Communications, 2020).
Several values for one entry are separate records, joined by “and”; a condition that tells them apart may be missing. Equal values may be shown once.

What was measured:
DRD4 (D4.4 variant) = target: T1, DRD4 (D4.4 variant) (Homo sapiens, UniProt P21917); assay: Gαi/o-mediated cAMP inhibition (GloSensor); format: cell-based; conditions: DRD4; agonist, cAMP inhibition; read-out: EC50 ± SEM
T1 sequence (P21917 1-419): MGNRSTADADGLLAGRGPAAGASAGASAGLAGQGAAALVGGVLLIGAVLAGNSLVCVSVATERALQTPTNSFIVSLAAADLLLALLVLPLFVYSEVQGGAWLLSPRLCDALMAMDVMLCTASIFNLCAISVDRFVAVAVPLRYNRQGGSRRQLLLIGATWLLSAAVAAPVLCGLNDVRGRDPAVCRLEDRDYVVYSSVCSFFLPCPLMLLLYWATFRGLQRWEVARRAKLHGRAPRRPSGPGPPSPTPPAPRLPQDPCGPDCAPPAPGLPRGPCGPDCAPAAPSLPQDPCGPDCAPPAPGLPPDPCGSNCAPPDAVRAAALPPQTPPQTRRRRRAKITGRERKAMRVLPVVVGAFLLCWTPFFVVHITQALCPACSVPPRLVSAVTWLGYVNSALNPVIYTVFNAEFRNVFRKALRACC

320 non-olfactory GPCRs = format: cell-based; conditions: compound at 1 μM
DRD2 F1103.28A = DRD2 F1103.28A (Homo sapiens, UniProt P14416, F110A); assay: β-arrestin2 recruitment (Tango), mutant; format: cell-based; set-up: expressed in transfected cells; host or cells: HEK293T (ATCC CRL-11268)
Sequence of DRD2 F1103.28A (P14416 whole entry F110A): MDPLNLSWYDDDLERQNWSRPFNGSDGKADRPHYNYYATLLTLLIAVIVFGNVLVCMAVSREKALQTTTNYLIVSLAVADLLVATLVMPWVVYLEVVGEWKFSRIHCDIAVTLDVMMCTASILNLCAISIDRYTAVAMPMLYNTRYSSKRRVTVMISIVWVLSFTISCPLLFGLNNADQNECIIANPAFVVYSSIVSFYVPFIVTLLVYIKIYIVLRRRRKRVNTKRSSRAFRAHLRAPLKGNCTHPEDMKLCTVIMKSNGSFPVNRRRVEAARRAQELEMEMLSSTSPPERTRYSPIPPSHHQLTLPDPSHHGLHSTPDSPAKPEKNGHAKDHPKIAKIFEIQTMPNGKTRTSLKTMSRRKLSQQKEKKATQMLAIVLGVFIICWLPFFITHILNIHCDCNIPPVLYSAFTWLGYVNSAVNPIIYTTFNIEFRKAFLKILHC

[1] = test system: serotonin receptor of Fig_S10h (subtype not given); assay: β-arrestin2 recruitment (Tango), agonist activity, source data Fig_S10h; format: cell-based, human; conditions: drug alone
5HT4 = target: T2, 5HT4 (Homo sapiens, UniProt Q13639); assay: β-arrestin2 recruitment (Tango); format: cell-based; conditions: Fig_S10n; for β-arrestin2 recruitment response in presence of serotonin (replicate values): +10μM serotonin; for β-arrestin2 recruitment response (dose-response source data, replicate values): drug alone
T2 construct: expressed in transfected cells; host or cells: HTLA cells expressing TEV-fused β-arrestin2
T2 sequence (Q13639 whole entry, the tested form may be a part): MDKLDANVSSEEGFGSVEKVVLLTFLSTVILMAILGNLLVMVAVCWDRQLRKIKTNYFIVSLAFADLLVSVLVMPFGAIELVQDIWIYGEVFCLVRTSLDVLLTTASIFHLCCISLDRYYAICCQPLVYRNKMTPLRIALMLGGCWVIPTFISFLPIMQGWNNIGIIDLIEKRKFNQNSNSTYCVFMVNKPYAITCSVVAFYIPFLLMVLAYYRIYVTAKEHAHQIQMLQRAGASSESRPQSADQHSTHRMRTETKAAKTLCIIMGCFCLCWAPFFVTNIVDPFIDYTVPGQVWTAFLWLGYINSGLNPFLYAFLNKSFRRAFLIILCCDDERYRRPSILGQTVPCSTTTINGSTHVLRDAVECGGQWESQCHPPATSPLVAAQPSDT

Question: How did the EC50 (DRD4 (D4.4 variant)) turn out when CCOc1cccc2cc([C@H](C)NCC3(O)CCCCC3)oc12 [O4SE6] was run?
Answer: The EC50 was > 10 µM.

Question: What about the “agonism across 320 nonolfactory GPCRs” value (320 non-olfactory GPCRs) of the same molecule?
Answer: The value was “only DRD2 activity was observed”.

Question: What about the EC50 (DRD2 F1103.28A) of the same molecule?
Answer: The EC50 was > 10 µM.

Question: What about the “response, single replicates of the concentration-response curve” value (“response, single replicates” below) ([1]; Log[Drug] -6.52) of the same molecule?
Answer: The value was -7.994.

Question: And the “response, single replicates” value ([1]; Log[Drug] -7)?
Answer: The value was -2.807 and 4.395 and 8.664 and 27.4134 and 13.2513 and 15.6474 and 13.1242 and -2.417 and -10.8222.

Question: And the “response, single replicates” value ([1]; Log[Drug] -7.52)?
Answer: The value was 4.715 and -8.828 and -5.606 and 8.395 and 8.216 and 0.5126 and 3.51 and 4.446 and -3.1317.

Question: And the “response, single replicates” value ([1]; Log[Drug] -8)?
Answer: The value was 0.3826 and 12.2654 and 8.146 and 2.179 and 0.2337 and 9.5034 and -12.0593 and 26.3744 and -3.5174.

Question: What about the “response, single replicates” value ([1]; Log[Drug] -8.52) of the same molecule?
Answer: Its value is -10.0653 and -1.2658 and 52.2148 and 23.8014 and -4.094 and -12.033 and 16.826 and 7.508 and 15.8147.

Question: What about the “response, single replicates” value ([1]; Log[Drug] -9) of the same molecule?
Answer: Its value is 1.557 and 9.933 and -1.226 and 2.422 and 13.6662 and 4.675 and -4.947 and 1.153 and 3.825.

Question: And the “response, single replicates” value ([1]; Log[Drug] -9.52)?
Answer: Its value is -5.148 and -10.9982 and -7.97 and 11.3845 and 16.9421 and 5.655 and -4.275 and -6.8476 and 18.2512.

Question: And the “response, single replicates” value ([1]; Log[Drug] -10)?
Answer: Its value is 15.0958 and 7.486 and 10.8542 and 5.527 and 29.223 and 0.999 and -10.921 and 11.0828 and -0.8457.

Question: And the “response, single replicates” value ([1]; Log[Drug] -10.52)?
Answer: Its value is -0.8745 and -6.646 and -1.622 and 20.5398 and 42.3766 and 10.7909 and -7.069 and -20.3001 and 10.2879.

Question: And the “response, single replicates” value ([1]; Log[Drug] -11)?
Answer: The value was -11.3698 and 19.5825 and 1.391 and 36.9549 and 6.363 and -10.581 and 12.6585 and -12.9389 and 3.331.

Question: And the “response, single replicates” value ([1]; Log[Drug] -11.52)?
Answer: The value was -4.741 and 3.94 and 12.3959 and 19.2666 and -9.551 and -8.707 and 10.8288 and -0.4553 and -7.722.

Question: What about the “response, single replicates” value ([1]; Log[Drug] -12) of the same molecule?
Answer: Its value is -3.8669 and -1.214 and 2.909 and 15.2183 and 14.2098 and -8.421 and -4.75 and -12.1063 and 12.6538.

Question: What about the “β-arrestin2 recruitment response in presence of serotonin (replicate values)” value (5HT4; Log[Drug] -6.52) of the same molecule?
Answer: Its value is 72.8962.

Question: What about the “β-arrestin2 recruitment response (dose-response source data, replicate values)” value (5HT4; Log[Drug] -6.52) of the same molecule?
Answer: Its value is 1.101.

Question: What about the “β-arrestin2 recruitment response in presence of serotonin (replicate values)” value (5HT4; Log[Drug] -7) of the same molecule?
Answer: The value was 68.214 and 69.7519 and 58.0435 and 78.1719 and 67.5552 and 58.9312 and 58.5479 and 62.6911 and 62.3338.

Question: And the “β-arrestin2 recruitment response (dose-response source data, replicate values)” value (5HT4; Log[Drug] -7)?
Answer: The value was 0.5278 and 0.7799 and 0.9481 and 2.146 and 2.021 and 0.7677 and -0.1447 and -0.08084 and 0.1108.

Question: What about the “β-arrestin2 recruitment response in presence of serotonin (replicate values)” value (5HT4; Log[Drug] -7.52) of the same molecule?
Answer: The value was 78.4713 and 70.1922 and 60.1136 and 64.4542 and 62.425 and 65.749 and 65.0234 and 67.6362 and 68.0461.

Question: And the “β-arrestin2 recruitment response (dose-response source data, replicate values)” value (5HT4; Log[Drug] -7.52)?
Answer: Its value is 1.098 and 0.2279 and 1.538 and 2.02 and 1.183 and 1.483 and -0.2732 and 0.4713 and 0.304.

Question: What about the “β-arrestin2 recruitment response in presence of serotonin (replicate values)” value (5HT4; Log[Drug] -8) of the same molecule?
Answer: Its value is 79.2214 and 70.638 and 63.1387 and 67.7854 and 68.476 and 59.8854 and 62.949 and 70.8028 and 62.3669.

Question: And the “β-arrestin2 recruitment response (dose-response source data, replicate values)” value (5HT4; Log[Drug] -8)?
Answer: Its value is 1.665 and 0.2788 and 1.143 and 1.476 and 0.7729 and 1.19 and -0.1116 and -0.1148 and 0.2053.

Question: And the “β-arrestin2 recruitment response in presence of serotonin (replicate values)” value (5HT4; Log[Drug] -8.52)?
Answer: Its value is 63.0325 and 66.617 and 68.5815 and 61.4979 and 62.8385 and 69.3531 and 69.1189 and 65.2821 and 54.9164.

Question: What about the “β-arrestin2 recruitment response (dose-response source data, replicate values)” value (5HT4; Log[Drug] -8.52) of the same molecule?
Answer: Its value is 2.264 and 0.3266 and 1.143 (2×) and 0.899 and 0.9417 and -0.211 and 0.2724 and 0.6928.

Question: And the “β-arrestin2 recruitment response in presence of serotonin (replicate values)” value (5HT4; Log[Drug] -9)?
Answer: Its value is 58.3354 and 69.9419 and 59.2835 and 65.9 and 67.9417 and 62.0583 and 73.9242 and 95.122 and 58.9489.

Question: And the “β-arrestin2 recruitment response (dose-response source data, replicate values)” value (5HT4; Log[Drug] -9)?
Answer: Its value is 0.7979 and 0.203 and 1.266 and 0.9417 and 1.353 and 2.815 and 0.5659 and 0.7244 and 0.2029.

Question: And the “β-arrestin2 recruitment response in presence of serotonin (replicate values)” value (5HT4; Log[Drug] -9.52)?
Answer: Its value is 62.0248 and 69.3453 and 57.8541 and 56.9479 and 71.0625 and 61.8156 and 76.4214 and 67.9653 and 74.0649.

Question: And the “β-arrestin2 recruitment response (dose-response source data, replicate values)” value (5HT4; Log[Drug] -9.52)?
Answer: Its value is 0.3303 and 1.247 and 2.286 and 1.442 and 0.7292 and 1.103 and 0.01536 and 0.2716 and 0.5247.

Question: And the “β-arrestin2 recruitment response in presence of serotonin (replicate values)” value (5HT4; Log[Drug] -10)?
Answer: The value was 55.5618 and 63.9322 and 63.2088 and 69.7104 and 76.0792 and 67.2 and 78.0601 and 69.8546 and 82.4903.

Question: What about the “β-arrestin2 recruitment response (dose-response source data, replicate values)” value (5HT4; Log[Drug] -10) of the same molecule?
Answer: The value was 0.4781 and 0.7712 and 1.0661 and 1.899 and 1.272 and 1.189 and -0.1148 and 0.1124 and 0.5271.

Question: What about the “β-arrestin2 recruitment response in presence of serotonin (replicate values)” value (5HT4; Log[Drug] -10.52) of the same molecule?
Answer: Its value is 62.9859 and 78.1652 and 74.7819 and 66.7635 and 61.4146 and 52.4937 and 74.1336 and 65.8957 and 89.463.

Question: And the “β-arrestin2 recruitment response (dose-response source data, replicate values)” value (5HT4; Log[Drug] -10.52)?
Answer: The value was 1.621 and 1.692 and 0.9661 and 0.6417 and 1.106 and 1.144 and 0.4066 and -0.08327 and 0.2078.

Question: What about the “β-arrestin2 recruitment response in presence of serotonin (replicate values)” value (5HT4; Log[Drug] -11) of the same molecule?
Answer: The value was 82.0434 and 83.1157 and 82.0887 and 77.05 and 73.7271 and 49.1812 and 80.7368 and 81.7578 and 70.7931.

Question: And the “β-arrestin2 recruitment response (dose-response source data, replicate values)” value (5HT4; Log[Drug] -11)?
Answer: Its value is 0.3285 and 0.5731 and 1.621 and 1.898 and 1.603 and 0.8979 and -0.2789 and 0.3428 and 0.1099.

Question: And the “β-arrestin2 recruitment response in presence of serotonin (replicate values)” value (5HT4; Log[Drug] -11.52)?
Answer: The value was 82.4482 and 79.2239 and 74.7068 and 70.1292 and 64.8323 and 73.1583 and 68.2329 and 84.5356 and 79.3843.

Question: And the “β-arrestin2 recruitment response (dose-response source data, replicate values)” value (5HT4; Log[Drug] -11.52)?
Answer: The value was 0.3061 and 0.7799 and 0.4241 and 1.31 and 1.564 and 0.9802 and 0.3743 and -0.1811 and 0.5651.
